Reference: patent US20260317327A1, “CRYSTRAL OF QUINOLINE-SUBSTITUTED COMPOUND” (TAIHO PHARMACEUTICAL CO., LTD., priority 2023, published 2026)

How the values were obtained:
[1] = Solid stability test (closed system, storage at 60 °C or 80 °C, HPLC purity, crystal form, appearance); format: physicochemical; settings: for Change amount (purity) 2 weeks after / Purity 2 weeks after / Color tone change 2 weeks after / Change amount (purity) 4 weeks after / Purity 4 weeks after / Color tone change 4 weeks after: closed system; for Color tone change 2 weeks after / Color tone change 4 weeks after: visual; for Purity at the beginning: HPLC 220 nm
Protocol: A temperature influence was tested by using the type I crystal, solvate crystal type “b”, and amorphous solid of the compound (1) obtained in Example 1, Comparative Example 1, and Reference Example 1, respectively. An evaluation was performed by the following procedure. In addition, with regard to the appearances of the crystals and the amorphous solid, the states thereof before and after their storage were visually observed. • Storage condition: 60° C. or 80° C. (closed system) (HIFLEX (high-temperature storage machine manufactured by ETAC Engineering Co., Ltd.)) • Storage period: 2 weeks and 4 weeks • Storage amount: about 100 mg • Storage container: a glass bottle
A change in amount of related substances (amount of substances detected in addition to the compound (1)) was analyzed by HPLC in accordance with the following method. A product obtained as follows was used as a sample for analysis: about 1 mg of each sample was weighed as the compound (1); the sample was dissolved in 10 mL of a mixed liquid of acetonitrile and water (3:1 v/v); and 5 μL of the liquid was accurately weighed out.
The amount of the related substances in the sample solution was measured by HPLC analysis. The handling of each apparatus including data processing followed a method and a procedure instructed in the apparatus. • Column: InertSustain C18HP (4.6 mm×150 mm, 3 μm) manufactured by GL Sciences Inc. • UV detection: 220 nm • Column temperature: 40° C. • Flow rate: 1.0 mL/min • Sample cooler: 5° C. • Sample concentration: 0.1 mg/mL • Mobile phase A: 0.1% phosphoric acid • Mobile phase B: acetonitrile

[2] = Dynamic vapor sorption (DVS) test; format: physicochemical
Protocol: A vapor sorption test was performed by using each of the type I crystal, solvate crystal type “b”, and amorphous solid of the compound (1) obtained in Example 1, Comparative Example 1, and Reference Example 1, respectively. The vapor sorption test was performed in accordance with the following conditions. About 10 mg of a sample was loaded into a dedicated holder made of quartz, and the weights of the sample at respective humidities were continuously measured and recorded under the following conditions.

[3] = Comparison of type I crystal with metastable crystal and hydrate crystal (hygroscopicity, storage stability; data not shown); format: physicochemical; settings: compared to metastable crystal and hydrate crystal
Excerpt: In addition to Comparative Example 1, a metastable crystal and a hydrate crystal of the compound (1) were obtained and compared with the type I crystal obtained according to the method described in Example 1.

EGFR = settings: as disclosed in Patent Document 1 (WO 2015/025936 A1); cited from earlier work

For `C=CC(=O)N[C@H]1C=C(C)c2c(-c3cnc4ccccc4c3)c3c(N)ncnc3n2C1` [Amorphous solid, (S)—N-(4-amino-6-methyl-5-(quinolin-3-yl)-8,9-dihydropyrimido[5,4-b]indolizin-8-yl)acrylamide], the “Change amount (purity) 2 weeks after” value ([1]; 60 °C) was −0.66%, the “Purity 2 weeks after” value ([1]; 60 °C) was 98.09% and the “Color tone change 2 weeks after” value ([1]; 60 °C) was “Absent”. The “Change amount (purity) 4 weeks after” value ([1]; 60 °C) was −0.85%, the “Purity 4 weeks after” value ([1]; 60 °C) was 97.90% and the “Color tone change 4 weeks after” value ([1]; 60 °C) was “Absent”. The “Change amount (purity) 2 weeks after” value ([1]; 80 °C) was −6.38%, the “Purity 2 weeks after” value ([1]; 80 °C) was 92.37% and the “Color tone change 2 weeks after” value ([1]; 80 °C) was “Coloring”. The “Change amount (purity) 4 weeks after” value ([1]; 80 °C) was −7.90%, the “Purity 4 weeks after” value ([1]; 80 °C) was 90.85% and the “Color tone change 4 weeks after” value ([1]; 80 °C) was “Coloring”. For the same compound, the “Purity at the beginning” value ([1]; storage at 60 °C series) was 98.75%, the “Purity at the beginning” value ([1]; storage at 80 °C series) was 98.75% and the Weight increase ([2]; 50% RH, 25 °C) was ≥ 2%. For the same compound, the Weight increase ([2]; 95% RH, 25 °C) was “about 10%”.

In the case of `C=CC(=O)N[C@H]1C=C(C)c2c(-c3cnc4ccccc4c3)c3c(N)ncnc3n2C1` [Solvate crystal type “b”, (S)—N-(4-amino-6-methyl-5-(quinolin-3-yl)-8,9-dihydropyrimido[5,4-b]indolizin-8-yl)acrylamide], the “Change amount (purity) 2 weeks after” value ([1]; 60 °C) is reported as −10.60%, the “Purity 2 weeks after” value ([1]; 60 °C) is reported as 88.16% and the “Color tone change 2 weeks after” value ([1]; 60 °C) is reported as “Absent”. The “Change amount (purity) 4 weeks after” value ([1]; 60 °C) was −11.55%, the “Purity 4 weeks after” value ([1]; 60 °C) was 87.21% and the “Color tone change 4 weeks after” value ([1]; 60 °C) was “Absent”. For the same compound, the “Change amount (purity) 2 weeks after” value ([1]; 80 °C) was −14.49%, the “Purity 2 weeks after” value ([1]; 80 °C) was 84.57% and the “Color tone change 2 weeks after” value ([1]; 80 °C) was “Absent”. The “Change amount (purity) 4 weeks after” value ([1]; 80 °C) was −15.38%, the “Purity 4 weeks after” value ([1]; 80 °C) was 83.38% and the “Color tone change 4 weeks after” value ([1]; 80 °C) was “Absent”. The “Purity at the beginning” value ([1]; storage at 60 °C series) was 98.76%, the “Purity at the beginning” value ([1]; storage at 80 °C series) was 98.76% and the “Weight increase profile (in words)” value ([2]; 5-95% RH, 25 °C) was “substantially linear weight increase starting from a low-humidity region”. For the same compound, the Weight increase ([2]; 95% RH, 25 °C) was ≥ 5%.

In the case of `C=CC(=O)N[C@H]1C=C(C)c2c(-c3cnc4ccccc4c3)c3c(N)ncnc3n2C1` [Type I crystal, (S)—N-(4-amino-6-methyl-5-(quinolin-3-yl)-8,9-dihydropyrimido[5,4-b]indolizin-8-yl)acrylamide], the “Chemical purity on storage (in words)” value ([1]; 60 °C / 80 °C, 2 and 4 weeks) is reported as “substantially remained unchanged”, the “Overall stability of crystal (in words)” value ([1]; 60 °C / 80 °C, 2 and 4 weeks) is reported as “extremely stable crystal” and the “Amount of related substances on storage (in words)” value ([1]; 60 °C / 80 °C, 2 and 4 weeks, HPLC) is reported as “substantially no increase in amount of related substances”. For the same compound, the “Crystal form and color tone on storage (in words)” value ([1]; 60 °C / 80 °C, 2 and 4 weeks, compared to solvate crystal type “b” and amorphous solid) was “showed no changes”, the “Change amount (purity) 2 weeks after” value ([1]; 60 °C) was 0.06% and the “Purity 2 weeks after” value ([1]; 60 °C) was 98.90%. The “Color tone change 2 weeks after” value ([1]; 60 °C) was “Absent”, the “Change amount (purity) 4 weeks after” value ([1]; 60 °C) was 0.02% and the “Purity 4 weeks after” value ([1]; 60 °C) was 98.86%. For the same compound, the “Color tone change 4 weeks after” value ([1]; 60 °C) was “Absent”, the “Change amount (purity) 2 weeks after” value ([1]; 80 °C) was 0.05% and the “Purity 2 weeks after” value ([1]; 80 °C) was 98.89%. The “Color tone change 2 weeks after” value ([1]; 80 °C) was “Absent”, the “Change amount (purity) 4 weeks after” value ([1]; 80 °C) was 0.07% and the “Purity 4 weeks after” value ([1]; 80 °C) was 98.91%. For the same compound, the “Color tone change 4 weeks after” value ([1]; 80 °C) was “Absent”, the “Purity at the beginning” value ([1]; storage at 60 °C series) was 98.84% and the “Purity at the beginning” value ([1]; storage at 80 °C series) was 98.84%. For the same compound, the Weight increase ([2]; 95% RH, 25 °C) was 1.28%, the “Hygroscopicity (in words)” value ([2]; compared to the solvate crystal type “b” and amorphous solid) was “less hygroscopic” and the Weight increase ([2]; up to 75% RH, 25 °C) was “less than 0.4%”. For the same compound, the “Hygroscopicity, storage stability, etc. (in words)” value [3] was “better properties in terms of hygroscopicity, storage stability, etc”.

In the case of `C=CC(=O)N[C@H]1C=C(C)c2c(-c3cnc4ccccc4c3)c3c(N)ncnc3n2C1` [compound (1), (S)—N-(4-amino-6-methyl-5-(quinolin-3-yl)-8,9-dihydropyrimido[5,4-b]indolizin-8-yl)acrylamide], the “EGFR-inhibiting action (in words)” value (EGFR) is listed as “excellent EGFR-inhibiting action”.
